Test results taken from ChEMBL document CHEMBL5131414, “Design, synthesis, and evaluation of phenylpiperazine-phenylacetate derivatives as rapid recovery hypnotic agents” (Bioorg Med Chem Lett, 2022).

Columns and labels:
[1] = Lipophilicity, logP of the compound; assay type: physicochemical; conditions: octanol/water
[2] = Therapeutic index, ratio of LD50 for toxicity in mouse to HD50 for anesthetic activity in mouse; assay type: organism-based; conditions: in vivo, read-out: TI
Mus musculus [3] = assay: Anesthetic activity in mouse assessed as onset time; assay type: functional
Mus musculus [4] = assay: Anesthetic activity in mouse assessed as time duration of loss of righting reflex; assay type: functional
Mus musculus [5] = assay: Anesthetic activity in mouse assessed as time to walk at 2 times of HD50 concentration; assay type: functional
Rattus norvegicus [6] = assay: Anesthetic activity in rat assessed as concentration required to induce hypnotic effect; assay type: functional, organism-based
[7] = Toxicity in rat assessed as lethal dose; conditions: in vivo
[8] = Therapeutic index, ratio of LD50 for toxicity in rat to HD50 for anesthetic activity in rat; conditions: read-out: TI
Oryctolagus cuniculus [9] = assay: Anesthetic activity in rabbit assessed as concentration required to induce hypnotic effect; assay type: functional, organism-based
[10] = Toxicity in rabbit assessed as lethal dose; set-up: species or system Oryctolagus cuniculus; conditions: in vivo
[11] = Therapeutic index, ratio of LD50 for toxicity in rabbit to HD50 for anesthetic activity in rabbit; conditions: read-out: TI
Rattus norvegicus [12] = assay: Anesthetic activity in rat assessed as onset time; assay type: functional
Rattus norvegicus [13] = assay: Anesthetic activity in rat assessed as time duration of loss of righting reflex; assay type: functional
Rattus norvegicus [14] = assay: Anesthetic activity in rat assessed as time to walk at 2 times of HD50 concentration; assay type: functional
Oryctolagus cuniculus [15] = assay: Anesthetic activity in rabbit assessed as onset time; assay type: functional
Oryctolagus cuniculus [16] = assay: Anesthetic activity in rabbit assessed as time duration of loss of righting reflex; assay type: functional
Oryctolagus cuniculus [17] = assay: Anesthetic activity in rabbit assessed as time to walk at 2 times of HD50 concentration; assay type: functional
[18] = molecular target: GABA-A receptor; anion channel (Homo sapiens) (UniProt P14867+P47870+P18507+P28472+P48169+Q99928+Q9UN88+P34903+O00591+O14764+Q8N1C3+P18505+P78334+P47869+P31644+Q16445); assay: Inhibition of GABAA receptor (unknown origin) at 50 uM by radioligand receptor binding assay relative to control; assay type: protein-complex assay
Mus musculus [19] = assay: Anesthetic activity in mouse assessed as concentration required to induce hypnotic effect; assay type: functional, organism-based
[20] = Toxicity in mouse assessed as lethal dose; conditions: in vivo
[21] = molecular target: Sigma non-opioid intracellular receptor 1 (Homo sapiens) (UniProt Q99720); assay: Inhibition of sigma 1 receptor (unknown origin) at 50 uM by radioligand receptor binding assay relative to control
Sigma non-opioid intracellular receptor 1 (Homo sapiens), sequence (Q99720 whole entry): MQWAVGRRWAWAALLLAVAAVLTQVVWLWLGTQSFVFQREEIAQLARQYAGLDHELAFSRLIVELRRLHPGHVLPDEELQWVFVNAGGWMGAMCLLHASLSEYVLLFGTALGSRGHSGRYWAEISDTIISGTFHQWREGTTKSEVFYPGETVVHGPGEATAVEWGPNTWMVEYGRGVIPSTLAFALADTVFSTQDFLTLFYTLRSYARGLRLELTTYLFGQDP

[22] = molecular target: Sigma intracellular receptor 2 (Homo sapiens) (UniProt Q5BJF2); assay: Inhibition of sigma 2 receptor (unknown origin) at 50 uM by radioligand receptor binding assay relative to control
Sigma intracellular receptor 2 (Homo sapiens), sequence (Q5BJF2 whole entry): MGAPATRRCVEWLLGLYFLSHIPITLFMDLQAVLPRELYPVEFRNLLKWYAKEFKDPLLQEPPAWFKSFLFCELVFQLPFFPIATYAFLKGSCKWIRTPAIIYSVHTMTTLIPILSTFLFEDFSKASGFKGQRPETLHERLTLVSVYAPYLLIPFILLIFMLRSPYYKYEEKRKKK

[23] = molecular target: D(2) dopamine receptor (Homo sapiens) (UniProt P14416); assay: Inhibition of D2 receptor (unknown origin) at 50 uM by radioligand receptor binding assay relative to control
D(2) dopamine receptor (Homo sapiens), sequence (P14416 whole entry): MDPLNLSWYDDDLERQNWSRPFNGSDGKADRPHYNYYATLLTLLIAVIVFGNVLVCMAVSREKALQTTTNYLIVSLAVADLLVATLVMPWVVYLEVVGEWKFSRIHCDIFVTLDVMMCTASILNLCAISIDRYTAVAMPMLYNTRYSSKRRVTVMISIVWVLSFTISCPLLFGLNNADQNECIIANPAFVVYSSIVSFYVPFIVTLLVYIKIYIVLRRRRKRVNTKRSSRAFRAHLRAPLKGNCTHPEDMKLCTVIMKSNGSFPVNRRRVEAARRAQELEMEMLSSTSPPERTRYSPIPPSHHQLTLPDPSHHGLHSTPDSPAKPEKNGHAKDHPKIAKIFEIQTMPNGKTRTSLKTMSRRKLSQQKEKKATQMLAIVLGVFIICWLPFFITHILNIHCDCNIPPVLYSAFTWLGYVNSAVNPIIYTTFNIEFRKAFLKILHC

[24] = molecular target: D(3) dopamine receptor (Homo sapiens) (UniProt P35462); assay: Inhibition of D3 receptor (unknown origin) at 50 uM by radioligand receptor binding assay relative to control
D(3) dopamine receptor (Homo sapiens), sequence (P35462 whole entry): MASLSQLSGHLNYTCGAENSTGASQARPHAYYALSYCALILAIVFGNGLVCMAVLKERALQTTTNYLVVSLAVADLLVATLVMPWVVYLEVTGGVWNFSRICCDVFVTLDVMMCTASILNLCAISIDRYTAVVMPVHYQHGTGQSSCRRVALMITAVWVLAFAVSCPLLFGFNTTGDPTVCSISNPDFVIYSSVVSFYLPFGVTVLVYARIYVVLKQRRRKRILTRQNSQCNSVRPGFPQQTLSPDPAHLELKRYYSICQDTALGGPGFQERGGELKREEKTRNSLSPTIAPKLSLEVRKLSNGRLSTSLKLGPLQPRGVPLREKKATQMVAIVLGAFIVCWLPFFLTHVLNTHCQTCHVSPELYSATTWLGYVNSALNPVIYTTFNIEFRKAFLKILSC

[25] = molecular target: Mu-type opioid receptor (Homo sapiens) (UniProt P35372); assay: Inhibition of mu opioid receptor (unknown origin) at 50 uM by radioligand receptor binding assay relative to control
Mu-type opioid receptor (Homo sapiens), sequence (P35372 whole entry): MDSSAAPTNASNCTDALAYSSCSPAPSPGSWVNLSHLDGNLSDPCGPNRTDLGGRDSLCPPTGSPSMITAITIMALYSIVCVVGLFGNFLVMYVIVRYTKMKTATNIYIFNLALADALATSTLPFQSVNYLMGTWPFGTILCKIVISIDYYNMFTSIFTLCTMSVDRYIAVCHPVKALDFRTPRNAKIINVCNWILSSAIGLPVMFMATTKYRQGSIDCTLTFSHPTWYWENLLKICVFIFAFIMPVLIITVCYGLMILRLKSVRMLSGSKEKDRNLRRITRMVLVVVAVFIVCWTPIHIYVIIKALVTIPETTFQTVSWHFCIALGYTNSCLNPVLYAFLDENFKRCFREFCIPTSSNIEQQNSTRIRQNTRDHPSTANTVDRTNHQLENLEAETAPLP

[26] = molecular target: T1, 5-hydroxytryptamine receptor 1A (Homo sapiens) (UniProt P08908); assay: Inhibition of 5-HT1A receptor (unknown origin) at 50 uM by radioligand receptor binding assay relative to control
T1 sequence (whole entry): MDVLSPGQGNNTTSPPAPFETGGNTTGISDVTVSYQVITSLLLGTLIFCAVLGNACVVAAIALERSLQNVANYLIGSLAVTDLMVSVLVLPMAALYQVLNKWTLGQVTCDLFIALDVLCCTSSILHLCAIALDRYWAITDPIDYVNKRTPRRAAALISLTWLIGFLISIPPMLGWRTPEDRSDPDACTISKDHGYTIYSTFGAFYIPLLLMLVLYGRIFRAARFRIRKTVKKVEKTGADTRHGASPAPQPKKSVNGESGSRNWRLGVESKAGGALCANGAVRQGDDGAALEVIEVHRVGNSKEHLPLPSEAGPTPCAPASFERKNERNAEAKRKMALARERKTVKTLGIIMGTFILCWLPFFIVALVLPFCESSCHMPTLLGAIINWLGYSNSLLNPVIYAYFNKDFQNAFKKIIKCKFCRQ

[27] = molecular target: 5-hydroxytryptamine receptor 2A (Homo sapiens) (UniProt P28223); assay: Inhibition of 5-HT2A receptor (unknown origin) at 50 uM by radioligand receptor binding assay relative to control
5-hydroxytryptamine receptor 2A (Homo sapiens), sequence (P28223 whole entry): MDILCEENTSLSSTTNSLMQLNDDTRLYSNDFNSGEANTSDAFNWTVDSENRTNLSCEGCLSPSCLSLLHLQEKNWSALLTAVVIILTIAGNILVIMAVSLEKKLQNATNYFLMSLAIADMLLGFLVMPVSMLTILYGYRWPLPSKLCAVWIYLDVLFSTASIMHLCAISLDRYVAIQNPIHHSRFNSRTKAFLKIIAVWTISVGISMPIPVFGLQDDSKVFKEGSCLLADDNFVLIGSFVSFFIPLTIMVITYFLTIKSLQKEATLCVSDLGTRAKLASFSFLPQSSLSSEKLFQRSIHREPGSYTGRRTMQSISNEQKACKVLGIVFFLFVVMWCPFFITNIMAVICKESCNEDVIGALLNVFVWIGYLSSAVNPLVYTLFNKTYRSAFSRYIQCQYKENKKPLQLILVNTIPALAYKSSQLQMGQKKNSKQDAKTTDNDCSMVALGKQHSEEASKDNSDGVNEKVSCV

[28] = molecular target: Sodium-dependent serotonin transporter (Homo sapiens) (UniProt P31645); assay: Inhibition of 5-HT transporter (unknown origin) at 50 uM by radioligand receptor binding assay relative to control
Sodium-dependent serotonin transporter (Homo sapiens), sequence (P31645 whole entry, looked up): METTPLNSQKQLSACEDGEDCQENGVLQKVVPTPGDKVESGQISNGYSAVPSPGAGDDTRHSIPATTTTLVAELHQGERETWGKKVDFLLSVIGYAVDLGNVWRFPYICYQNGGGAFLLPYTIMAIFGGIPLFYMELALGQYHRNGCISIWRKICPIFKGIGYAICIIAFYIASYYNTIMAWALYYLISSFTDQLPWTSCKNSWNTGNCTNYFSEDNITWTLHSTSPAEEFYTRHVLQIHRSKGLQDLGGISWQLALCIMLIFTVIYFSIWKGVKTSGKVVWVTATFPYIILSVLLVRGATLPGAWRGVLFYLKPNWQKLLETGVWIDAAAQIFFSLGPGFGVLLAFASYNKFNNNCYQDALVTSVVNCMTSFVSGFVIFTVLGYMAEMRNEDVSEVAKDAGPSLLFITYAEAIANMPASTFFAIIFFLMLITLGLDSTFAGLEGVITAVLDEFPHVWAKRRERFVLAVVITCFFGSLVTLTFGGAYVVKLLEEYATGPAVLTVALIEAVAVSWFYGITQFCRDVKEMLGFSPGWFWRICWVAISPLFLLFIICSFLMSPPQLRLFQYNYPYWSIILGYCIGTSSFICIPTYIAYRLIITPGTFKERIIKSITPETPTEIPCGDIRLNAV

[29] = molecular target: Sodium-dependent noradrenaline transporter (Homo sapiens) (UniProt P23975); assay: Inhibition of Noradrenaline receptor (unknown origin) at 50 uM by radioligand receptor binding assay relative to control
Sodium-dependent noradrenaline transporter (Homo sapiens), sequence (P23975 whole entry): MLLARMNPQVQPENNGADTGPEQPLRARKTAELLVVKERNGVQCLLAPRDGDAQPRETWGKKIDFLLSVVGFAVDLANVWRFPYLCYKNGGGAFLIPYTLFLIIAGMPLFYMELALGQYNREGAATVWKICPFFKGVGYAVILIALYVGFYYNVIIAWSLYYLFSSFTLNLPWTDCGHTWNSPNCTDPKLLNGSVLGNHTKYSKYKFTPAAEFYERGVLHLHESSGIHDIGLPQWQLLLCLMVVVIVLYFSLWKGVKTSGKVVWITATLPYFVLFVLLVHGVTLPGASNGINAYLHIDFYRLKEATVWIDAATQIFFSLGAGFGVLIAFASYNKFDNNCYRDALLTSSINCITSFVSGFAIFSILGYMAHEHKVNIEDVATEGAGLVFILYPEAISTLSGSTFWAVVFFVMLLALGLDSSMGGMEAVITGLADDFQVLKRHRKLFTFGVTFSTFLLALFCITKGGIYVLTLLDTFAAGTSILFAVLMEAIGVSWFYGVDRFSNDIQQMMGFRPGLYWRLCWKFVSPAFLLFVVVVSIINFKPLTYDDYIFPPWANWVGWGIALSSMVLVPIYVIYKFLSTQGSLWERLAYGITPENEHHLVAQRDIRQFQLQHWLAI

[30] = molecular target: Glutamate [NMDA] receptor (Homo sapiens) (UniProt Q05586+Q12879+Q13224+O15399+O60391+Q14957+Q8TCU5); assay: Inhibition of NMDA receptor (unknown origin) at 50 uM by radioligand receptor binding assay relative to control; assay type: protein-complex assay
[31] = molecular target: Cannabinoid receptor 1 (Homo sapiens) (UniProt P21554); assay: Inhibition of CB1 receptor (unknown origin) at 50 uM by radioligand receptor binding assay relative to control
Cannabinoid receptor 1 (Homo sapiens), sequence (P21554 whole entry): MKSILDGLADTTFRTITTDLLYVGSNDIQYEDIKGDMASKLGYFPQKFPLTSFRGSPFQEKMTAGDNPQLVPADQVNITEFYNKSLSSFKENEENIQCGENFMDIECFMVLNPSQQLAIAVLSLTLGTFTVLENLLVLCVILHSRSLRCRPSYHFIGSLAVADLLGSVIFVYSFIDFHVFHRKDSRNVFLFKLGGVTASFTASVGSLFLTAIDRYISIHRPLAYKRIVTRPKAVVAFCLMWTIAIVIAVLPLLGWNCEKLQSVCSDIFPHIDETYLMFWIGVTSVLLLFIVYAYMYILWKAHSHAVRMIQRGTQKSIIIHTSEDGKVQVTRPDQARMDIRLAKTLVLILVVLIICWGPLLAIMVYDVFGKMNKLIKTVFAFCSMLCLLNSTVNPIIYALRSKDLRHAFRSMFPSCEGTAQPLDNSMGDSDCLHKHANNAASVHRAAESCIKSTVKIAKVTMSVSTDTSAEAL

[32] = molecular target: Cannabinoid receptor 2 (Homo sapiens) (UniProt P34972); assay: Inhibition of CB2 receptor (unknown origin) at 50 uM by radioligand receptor binding assay relative to control
Cannabinoid receptor 2 (Homo sapiens), sequence (P34972 whole entry): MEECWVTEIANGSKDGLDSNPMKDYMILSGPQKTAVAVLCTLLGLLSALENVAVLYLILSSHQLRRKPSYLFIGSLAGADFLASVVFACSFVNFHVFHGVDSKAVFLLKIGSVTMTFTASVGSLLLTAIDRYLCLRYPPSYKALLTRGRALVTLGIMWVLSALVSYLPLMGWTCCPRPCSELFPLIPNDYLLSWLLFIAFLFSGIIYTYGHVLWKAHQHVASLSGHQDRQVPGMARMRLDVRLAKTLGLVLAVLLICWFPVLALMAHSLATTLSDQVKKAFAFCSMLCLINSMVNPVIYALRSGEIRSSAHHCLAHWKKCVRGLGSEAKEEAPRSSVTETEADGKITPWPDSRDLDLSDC

[33] = molecular target: T2, Alpha-2A adrenergic receptor (Homo sapiens) (UniProt P08913); assay: Inhibition of adrenergic alpha 2A receptor (unknown origin) at 50 uM by radioligand receptor binding assay relative to control
T2 sequence (whole entry): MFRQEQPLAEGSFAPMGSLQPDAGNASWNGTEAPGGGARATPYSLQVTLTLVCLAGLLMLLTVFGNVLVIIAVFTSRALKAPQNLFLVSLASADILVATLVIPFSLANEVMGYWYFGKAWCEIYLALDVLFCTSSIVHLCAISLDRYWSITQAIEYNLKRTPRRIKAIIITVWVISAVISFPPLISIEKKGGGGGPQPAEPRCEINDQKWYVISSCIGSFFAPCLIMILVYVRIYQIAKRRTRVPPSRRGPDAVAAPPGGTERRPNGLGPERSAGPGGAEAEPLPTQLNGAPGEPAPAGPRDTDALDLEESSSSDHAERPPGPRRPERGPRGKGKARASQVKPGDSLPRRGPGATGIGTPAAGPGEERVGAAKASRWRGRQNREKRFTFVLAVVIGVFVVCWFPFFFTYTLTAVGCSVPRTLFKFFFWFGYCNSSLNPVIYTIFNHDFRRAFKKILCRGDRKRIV

Q: With CCCOC(=O)Cc1ccc(OCC(=O)N(CC)CC)c(OC)c1 [PROPANIDID] as the compound, how does the logP [1] read?
A: 2.1

Q: What about the selectivity ratio [2] of the same compound?
A: 5.6

Q: And the Time (Mus musculus [3])?
A: 6.7 s

Q: And the Time (Mus musculus [4])?
A: 89.6 s

Q: What about the Time (Mus musculus [5]) of the same compound?
A: 56.3 s

Q: What about the EC50 (Rattus norvegicus [6]) of the same compound?
A: 8.4 mg/kg

Q: What about the LD50 [7] of the same compound?
A: 81 mg/kg

Q: What about the selectivity ratio [8] of the same compound?
A: 9.6

Q: What about the EC50 (Oryctolagus cuniculus [9]) of the same compound?
A: 5.1 mg/kg

Q: What about the LD50 [10] of the same compound?
A: 75.4 mg/kg

Q: What about the selectivity ratio [11] of the same compound?
A: 14.7

Q: What about the Time (Rattus norvegicus [12]) of the same compound?
A: 16.3 s

Q: And the Time (Rattus norvegicus [13])?
A: 93.3 s

Q: And the Time (Rattus norvegicus [14])?
A: 58.7 s

Q: And the Time (Oryctolagus cuniculus [15])?
A: 22.6 s

Q: What about the Time (Oryctolagus cuniculus [16]) of the same compound?
A: 265.4 s

Q: And the Time (Oryctolagus cuniculus [17])?
A: 124.5 s

Q: And the inhibition [18]?
A: 83.2%

Q: What does the source list for CCCOC(=O)Cc1ccc(OCC(=O)N2CCN(c3ccccc3)CC2)c(OCC)c1?
A: logP [1]: 3.6; HD50 (median hypnotic dose) (Mus musculus [19]): 25 mg/kg; LD50 [20]: 200 mg/kg; selectivity ratio [2]: 8; Time (Mus musculus [3]): 6.4 s; Time (Mus musculus [4]): 83.3 s; Time (Mus musculus [5]): 38.6 s; EC50 (Rattus norvegicus [6]): 7.1 mg/kg; LD50 [7]: 72.9 mg/kg; selectivity ratio [8]: 10.3; EC50 (Oryctolagus cuniculus [9]): 5.2 mg/kg; LD50 [10]: 93.9 mg/kg; selectivity ratio [11]: 18.1; Time (Rattus norvegicus [12]): 9.6 s; Time (Rattus norvegicus [13]): 92.4 s; Time (Rattus norvegicus [14]): 33.4 s; Time (Oryctolagus cuniculus [15]): 14.5 s; Time (Oryctolagus cuniculus [16]): 292.9 s; Time (Oryctolagus cuniculus [17]): 81.7 s; inhibition [18]: 89.8%; inhibition [21]: 9.1%; inhibition [22]: 7.5%; inhibition [23]: 1.2%; inhibition [24]: 2.9%; inhibition [25]: 4.6%; inhibition [26]: 15.2%; inhibition [27]: 11.9%; inhibition [28]: 1.9%; inhibition [29]: 11.5%; inhibition [30]: 4.3%; inhibition [31]: 10.8%; inhibition [32]: 12.6%; inhibition [33]: 5.8%

Q: What does the source list for CCOC(=O)Cc1ccc(OCC(=O)N2CCN(c3ccccc3)CC2)c(OCC)c1?
A: logP [1]: 3.1; HD50 (median hypnotic dose) (Mus musculus [19]): 30.6 mg/kg; LD50 [20]: 208 mg/kg; selectivity ratio [2]: 6.8; inhibition [18]: 22.1%

Q: Which results are given for CCOc1cc(CC(=O)OC(C)C)ccc1OCC(=O)N1CCN(c2cccc(C)c2C)CC1?
A: logP [1]: 4.4; HD50 (median hypnotic dose) (Mus musculus [19]): 31.4 mg/kg; LD50 [20]: 200 mg/kg; selectivity ratio [2]: 6.4; inhibition [18]: 42.7%

Q: Which results are given for CCOc1cc(CC(=O)OC(C)C)ccc1OCC(=O)N1CCN(c2cccc(C(F)(F)F)c2)CC1?
A: logP [1]: 4.4; HD50 (median hypnotic dose) (Mus musculus [19]): 31.6 mg/kg; LD50 [20]: 163 mg/kg; selectivity ratio [2]: 5.1; inhibition [18]: 54.7%

Q: With CCOC(=O)Cc1ccc(OCC(=O)N2CCN(c3cccc(C(F)(F)F)c3)CC2)c(OCC)c1 as the compound, how does the logP [1] read?
A: 4.1

Q: What about the “HD50 (median hypnotic dose)” value (Mus musculus [19]) of the same compound?
A: 42.5 mg/kg

Q: What about the LD50 [20] of the same compound?
A: 289 mg/kg

Q: And the selectivity ratio [2]?
A: 6.8

Q: And the inhibition [18]?
A: 44.4%

Q: With CCCOC(=O)Cc1ccc(OCC(=O)N2CCN(c3cccc(C)c3C)CC2)c(OCC)c1 as the compound, how does the logP [1] read?
A: 4.6

Q: And the “HD50 (median hypnotic dose)” value (Mus musculus [19])?
A: 42.5 mg/kg

Q: And the LD50 [20]?
A: 269 mg/kg

Q: And the selectivity ratio [2]?
A: 6.3

Q: What about the inhibition [18] of the same compound?
A: 45.5%

Q: What does the source list for CCOc1cc(CC(=O)OCC(F)(F)F)ccc1OCC(=O)N1CCN(c2ccccc2)CC1?
A: logP [1]: 3.8; HD50 (median hypnotic dose) (Mus musculus [19]): 24.8 mg/kg; LD50 [20]: 193 mg/kg; selectivity ratio [2]: 7.8; Time (Mus musculus [3]): 7.1 s; Time (Mus musculus [4]): 76.5 s; Time (Mus musculus [5]): 44.9 s; inhibition [18]: 70.6%

Q: With CCOc1cc(CC(=O)OCC(F)(F)F)ccc1OCC(=O)N1CCN(c2cccc(C)c2C)CC1 as the compound, how does the logP [1] read?
A: 4.7

Q: What about the “HD50 (median hypnotic dose)” value (Mus musculus [19]) of the same compound?
A: 35.6 mg/kg

Q: What about the LD50 [20] of the same compound?
A: 227 mg/kg

Q: What about the selectivity ratio [2] of the same compound?
A: 6.4

Q: And the inhibition [18]?
A: 32.1%

Q: Which logP [1] does the source give for CCCOC(=O)Cc1ccc(OCC(=O)N2CCN(c3cccc(C(F)(F)F)c3)CC2)c(OCC)c1 here?
A: 4.5

Q: What about the “HD50 (median hypnotic dose)” value (Mus musculus [19]) of the same compound?
A: 33.6 mg/kg

Q: And the LD50 [20]?
A: 176 mg/kg

Q: And the selectivity ratio [2]?
A: 5.2

Q: What about the inhibition [18] of the same compound?
A: 49.6%
